Values of other authors, collected in patent publication EP2231118B2, “SUSPENSION COMPRISING NON-MICRONIZED EZETIMIBE MICRO-PARTICLES” (KRKA, tovarna zdravil, d.d., Novo mesto, priority 2007, dated 2009).

O=C1[C@H](CC[C@H](O)c2ccc(F)cc2)[C@@H](c2ccc(O)cc2)N1c1ccc(F)cc1 [Ezetimibe, 1-(4-fluorophenyl)-3(R)-[3-(4-fluorophenyl)-3(S)-hydroxypropyl]-4(S)-(4-hydroxyphenyl)-2-azetidinone]
solubility in water: practically insoluble
